Earlier results, collected in patent US7012060B1, “TNF receptor and steroid hormone in a combined therapy” (priority 1995, dated 2006).

Key:
[1] = tested on: septic shock induced by lipopolysaccharides (LPS) alone; settings: mice; cited from earlier work
[2] = tested on: herpes virus type 2; settings: cited from earlier work
[3] = tested on: West Nile virus; settings: cited from earlier work

In the case of `C[C@]12CC[C@H](O)CC1=CC[C@@H]1[C@@H]2CC[C@]2(C)C(=O)CC[C@@H]12` [DHEA, Dehydroepiandrosterone], the “protection from septic shock” value [1] is listed as “protecting mice from septic shock”, the “systemic resistance against lethal viral infections” value [2] is listed as “regulates the systemic resistance” and the “systemic resistance against lethal viral infections” value [3] is listed as “regulates the systemic resistance”.
